# In ChEMBL document CHEMBL3286258, “Medicinal chemistry of inhibitors of 11β-hydroxysteroid dehydrogenase type 1 (11β-HSD1)” (J Med Chem, 2014):
# What was measured:
# [1] = biological target: T1, 11-beta-hydroxysteroid dehydrogenase type 2 (Homo sapiens, UniProt P80365); experiment: Inhibition of human 11beta-HSD2
# T1 sequence (P80365 whole entry): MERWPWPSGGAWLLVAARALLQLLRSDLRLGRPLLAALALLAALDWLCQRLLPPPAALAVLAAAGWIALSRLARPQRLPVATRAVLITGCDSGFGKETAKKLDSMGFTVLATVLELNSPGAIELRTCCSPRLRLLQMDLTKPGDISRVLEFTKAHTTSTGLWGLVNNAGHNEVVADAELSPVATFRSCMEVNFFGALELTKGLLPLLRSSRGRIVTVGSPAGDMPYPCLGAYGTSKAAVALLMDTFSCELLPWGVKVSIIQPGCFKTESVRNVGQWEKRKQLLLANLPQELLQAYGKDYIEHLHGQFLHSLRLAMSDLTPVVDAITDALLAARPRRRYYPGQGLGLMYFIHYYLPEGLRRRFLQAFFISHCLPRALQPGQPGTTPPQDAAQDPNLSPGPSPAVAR
# [2] = Oral bioavailability in mouse; format: ADME, organism-based; settings: in vivo
# Mus musculus [3] = experiment: In vivo inhibition of 11beta-HSD1 in mouse assessed as inhibition of [3H]cortisone to [3H]cortisol conversion at 10 mg/kg, po measured after 4 hrs relative to control; format: functional
# Mus musculus [4] = experiment: In vivo inhibition of 11beta-HSD1 in mouse assessed as inhibition of [3H]cortisone to [3H]cortisol conversion at 10 mg/kg, po measured after 1 hr relative to control; format: functional
# [5] = biological target: T2, 11-beta-hydroxysteroid dehydrogenase 1 (Mus musculus, UniProt P50172); experiment: Inhibition of mouse 11beta-HSD1
# [6] = Clearance in mouse; format: ADME, organism-based; settings: in vivo
# Homo sapiens [7] = organism: Homo sapiens; experiment: Toxicity in type 2 diabetic patient assessed as increase in circulating adrenal androgen at 6 mg/day relative to placebo-control; format: organism-based; settings: in vivo
# Homo sapiens [8] = organism: Homo sapiens; experiment: Reduction in hBA1c in type 2 diabetic patient; format: functional; design: scale not given: the % may be the effect or the level left
# Homo sapiens [9] = organism: Homo sapiens; experiment: Toxicity in type 2 diabetic patient assessed as increase in LDL-cholesterol level at 6 mg/day relative to placebo-control; format: organism-based; settings: in vivo
# [10] = Inhibition of N-terminal His-tagged full length dog 11beta-HSD1 assessed as inhibition of cortisone to cortisol conversion preincubated for 25 mins measured after 2 hrs by HTRF assay; design: species or system Canis lupus familiaris
# [11] = biological target: 11-beta-hydroxysteroid dehydrogenase 1 (Rattus norvegicus, UniProt P16232); experiment: Inhibition of rat 11beta-HSD1 expressed in HEK293 cells; format: cell-based
# [12] = biological target: T2, 11-beta-hydroxysteroid dehydrogenase 1; experiment: Inhibition of mouse 11beta-HSD1 expressed in HEK293 cells; format: cell-based
# Homo sapiens [13] = organism: Homo sapiens; experiment: Reduction in body weight in overweight/obese patient with hypertension at 7 mg relative to control; format: functional
# Homo sapiens [14] = organism: Homo sapiens; experiment: Reduction in LDL-cholesterol in overweight/obese patient with hypertension at 7 mg relative to control; format: functional; design: scale not given: the % may be the effect or the level left
# Homo sapiens [15] = organism: Homo sapiens; experiment: Reduction in HDL-cholesterol in overweight/obese patient with hypertension at 7 mg relative to control; format: functional; design: scale not given: the % may be the effect or the level left
# Homo sapiens [16] = organism: Homo sapiens; experiment: Toxicity in overweight/obese patient with hypertension assessed as increase in adrenal androgen level at 7 mg/day relative to control; format: organism-based; settings: in vivo
# Mus musculus [17] = experiment: In vivo inhibition of 11beta-HSD1 in mouse assessed as inhibition of cortisone to cortisol conversion at 100 mg/kg relative to control; format: functional
# Mus musculus [18] = experiment: In vivo inhibition of 11beta-HSD1 in mouse assessed as inhibition of cortisone to cortisol conversion at 5 mg/kg relative to control; format: functional
# Mus musculus [19] = organism: Mus musculus; experiment: Reduction in liver corticosterone level in adrenalectomized mouse model; format: functional
# [20] = Oral bioavailability in rat; format: ADME, organism-based; settings: in vivo
# [21] = Clearance in rat; format: ADME, organism-based; settings: in vivo
# Mus musculus [22] = experiment: Ex vivo inhibition of 11beta-HSD1 in mouse fat at 20 mg/kg relative to control; format: functional
# [23] = Inhibition of cytochrome P450 (unknown origin); format: ADME, Homo sapiens
# [24] = biological target: Voltage-gated inwardly rectifying potassium channel KCNH2 (Homo sapiens, UniProt Q12809); experiment: Inhibition of human ERG
# Mus musculus [25] = experiment: Reduction in plasma glucose level in ob/ob mouse at 200 mg/kg/day for 5 days measured after 5 days; format: functional; design: scale not given: the % may be the effect or the level left
# Homo sapiens [26] = organism: Homo sapiens; experiment: Inhibition of prednisone to prednisolone conversion in healthy human at 15 mg qd relative to control; format: functional
# [27] = Drug excretion in healthy human urine; format: ADME, tissue-based; settings: read-out: Drug excretion
# [28] = Tmax in healthy human by 14 day test; format: ADME, organism-based; settings: in vivo
# Cynomolgus monkey [29] = experiment: In vivo inhibition of 11beta-HSD1 in cynomolgus monkey assessed as inhibition of prednisone to prednisolone conversion at 0.1 to 3 mg/kg relative to control; format: functional, Macaca fascicularis; settings: dose mg/kg 0.1-3
# Homo sapiens [30] = organism: Homo sapiens; experiment: Reduction in 5alpha/5beta-tetrahydrocortisol to tetrahydrocortisone ratio in healthy human at 15 mg qd relative to control; format: functional
# [31] = Elimination half life in healthy human by 14 day test; format: ADME, organism-based; settings: in vivo, read-out: beta t1/2 (converted)
# [32] = Clearance in healthy human by 14 day test; format: ADME, organism-based; settings: in vivo
# Cynomolgus monkey [33] = experiment: Reduction in plasma insulin level in cynomolgus monkey at 0.1 to 3 mg/kg; format: functional, Macaca fascicularis; settings: dose mg/kg 0.1-3
# Mus musculus [34] = experiment: Reduction in postprandial blood glucose level in high fat diet-fed STZ-induced diabetes mouse model at 30 mg/kg bid for 9 days relative to vehicle-treated control; format: functional; design: scale not given: the % may be the effect or the level left
# [35] = biological target: T3, 11-beta-hydroxysteroid dehydrogenase type 2 (Mus musculus, UniProt P51661); experiment: Inhibition of mouse 11beta-HSD2
# T3 sequence (P51661 whole entry): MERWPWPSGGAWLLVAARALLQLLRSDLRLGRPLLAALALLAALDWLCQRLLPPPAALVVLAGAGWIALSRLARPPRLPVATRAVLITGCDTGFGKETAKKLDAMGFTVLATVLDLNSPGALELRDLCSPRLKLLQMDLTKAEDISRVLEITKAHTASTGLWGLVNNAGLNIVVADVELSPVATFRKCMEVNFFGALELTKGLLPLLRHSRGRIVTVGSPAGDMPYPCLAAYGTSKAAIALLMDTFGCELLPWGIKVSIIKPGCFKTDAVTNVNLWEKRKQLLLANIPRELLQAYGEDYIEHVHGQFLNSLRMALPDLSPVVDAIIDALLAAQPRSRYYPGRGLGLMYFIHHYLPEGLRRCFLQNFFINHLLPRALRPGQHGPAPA
# Mus musculus [36] = experiment: Reduction in fasting blood glucose level in high fat diet-fed STZ-induced diabetes mouse model at 30 mg/kg bid for 9 days relative to vehicle-treated control; format: functional; design: scale not given: the % may be the effect or the level left
# [37] = biological target: 11-beta-hydroxysteroid dehydrogenase 1 (Homo sapiens, UniProt P28845); experiment: Inhibition of human 11beta-HSD1
# Mus musculus [38] = experiment: Reduction in body weight in diet-induced obese mouse model at 20 mg/kg bid for 11 days relative to vehicle-treated control; format: functional; design: scale not given: the % may be the effect or the level left
# Mus musculus [39] = experiment: Reduction in cumulative food intake in diet-induced obese mouse model at 20 mg/kg bid for 11 days relative to vehicle-treated control; format: functional; design: scale not given: the % may be the effect or the level left
# Mus musculus [40] = experiment: Reduction in aortic total cholesterol accumulation in high fat diet-fed mouse model at 10 mg/kg/day for 8 weeks relative to vehicle-treated control; design: scale not given: the % may be the effect or the level left
# Mus musculus [41] = experiment: Reduction in fasting blood glucose level in diet-induced obese mouse model at 20 mg/kg bid for 11 days relative to vehicle-treated control; format: functional; design: scale not given: the % may be the effect or the level left
# T2 sequence (P50172 whole entry): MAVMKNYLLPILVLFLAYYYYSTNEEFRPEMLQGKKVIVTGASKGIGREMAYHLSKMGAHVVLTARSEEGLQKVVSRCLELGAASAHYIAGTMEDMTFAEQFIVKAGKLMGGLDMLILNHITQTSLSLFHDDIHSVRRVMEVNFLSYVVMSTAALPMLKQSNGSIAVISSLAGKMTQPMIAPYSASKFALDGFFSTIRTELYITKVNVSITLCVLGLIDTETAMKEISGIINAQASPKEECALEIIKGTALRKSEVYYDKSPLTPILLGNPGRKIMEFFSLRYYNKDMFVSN
# Sequence of 11-beta-hydroxysteroid dehydrogenase 1 (Rattus norvegicus, UniProt P16232) (P16232 whole entry): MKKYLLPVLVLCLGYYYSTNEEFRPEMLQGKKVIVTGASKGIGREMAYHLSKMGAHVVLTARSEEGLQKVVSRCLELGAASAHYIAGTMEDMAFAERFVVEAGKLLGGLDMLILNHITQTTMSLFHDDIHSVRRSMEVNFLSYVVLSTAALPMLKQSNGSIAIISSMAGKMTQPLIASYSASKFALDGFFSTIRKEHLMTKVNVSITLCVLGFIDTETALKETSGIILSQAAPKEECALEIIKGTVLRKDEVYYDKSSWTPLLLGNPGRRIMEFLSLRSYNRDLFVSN
# Sequence of 11-beta-hydroxysteroid dehydrogenase 1 (Homo sapiens, UniProt P28845) (P28845 whole entry): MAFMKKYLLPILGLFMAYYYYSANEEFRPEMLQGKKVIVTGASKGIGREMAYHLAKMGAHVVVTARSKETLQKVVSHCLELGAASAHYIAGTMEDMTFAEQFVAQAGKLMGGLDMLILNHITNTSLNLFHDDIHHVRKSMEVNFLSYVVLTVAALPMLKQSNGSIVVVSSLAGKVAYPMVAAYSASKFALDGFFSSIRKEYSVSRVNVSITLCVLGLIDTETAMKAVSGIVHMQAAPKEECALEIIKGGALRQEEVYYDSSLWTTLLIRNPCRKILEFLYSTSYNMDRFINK
# Sequence of Voltage-gated inwardly rectifying potassium channel KCNH2 (Q12809 whole entry): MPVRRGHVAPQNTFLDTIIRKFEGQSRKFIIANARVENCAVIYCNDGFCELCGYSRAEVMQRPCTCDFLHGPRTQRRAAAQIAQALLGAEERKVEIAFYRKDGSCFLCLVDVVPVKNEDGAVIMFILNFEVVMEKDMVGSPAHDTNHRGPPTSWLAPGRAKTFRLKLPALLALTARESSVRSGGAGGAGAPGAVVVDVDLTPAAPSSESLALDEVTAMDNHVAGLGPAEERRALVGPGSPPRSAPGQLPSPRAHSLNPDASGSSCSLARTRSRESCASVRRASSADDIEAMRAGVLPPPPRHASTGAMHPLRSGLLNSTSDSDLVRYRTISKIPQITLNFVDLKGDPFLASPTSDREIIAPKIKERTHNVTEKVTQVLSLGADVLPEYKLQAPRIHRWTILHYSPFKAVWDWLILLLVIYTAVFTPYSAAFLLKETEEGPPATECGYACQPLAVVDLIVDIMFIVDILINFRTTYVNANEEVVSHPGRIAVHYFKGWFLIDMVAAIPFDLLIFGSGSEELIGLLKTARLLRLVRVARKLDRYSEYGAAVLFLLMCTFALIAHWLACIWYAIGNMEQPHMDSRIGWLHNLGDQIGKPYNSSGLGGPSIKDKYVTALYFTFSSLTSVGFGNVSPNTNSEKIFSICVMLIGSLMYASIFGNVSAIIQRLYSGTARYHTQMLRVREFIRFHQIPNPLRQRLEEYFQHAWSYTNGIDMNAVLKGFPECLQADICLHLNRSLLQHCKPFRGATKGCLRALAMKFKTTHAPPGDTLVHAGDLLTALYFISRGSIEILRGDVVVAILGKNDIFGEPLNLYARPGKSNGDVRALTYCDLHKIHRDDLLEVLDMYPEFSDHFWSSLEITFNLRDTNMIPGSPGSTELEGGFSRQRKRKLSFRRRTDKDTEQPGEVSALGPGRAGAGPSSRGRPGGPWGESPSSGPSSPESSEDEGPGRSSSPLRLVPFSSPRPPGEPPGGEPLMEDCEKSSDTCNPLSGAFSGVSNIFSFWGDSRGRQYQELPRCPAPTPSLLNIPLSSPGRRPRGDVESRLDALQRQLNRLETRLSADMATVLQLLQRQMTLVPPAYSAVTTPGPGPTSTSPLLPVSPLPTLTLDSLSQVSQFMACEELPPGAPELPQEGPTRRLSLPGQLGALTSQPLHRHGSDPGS
smiles,measurement,setting,value
Cc1c(Cl)cccc1S(=O)(=O)Nc1nc(CC(=O)N2CCN(C)CC2)cs1,IC50,[1],> 10000 nM
same,bioavailability,[2],21%
Cn1c(-c2ccccc2)nnc1C12CC3CC(CC(C3)C1)C2 [FIG 1],inhibition in vivo at 10 mg/kg,Mus musculus [3],47%
same,inhibition in vivo at 10 mg/kg,Mus musculus [4],85%
Cc1c(Cl)cccc1S(=O)(=O)N1CCC[C@H](C(=O)N[C@H]2C[C@@H]3CC[C@@]2(C)C3(C)C)C1,IC50,[5],18 nM
CCN(CC)C(=O)Cc1csc(NS(=O)(=O)c2cccc(Cl)c2C)n1,IC50,[1],> 10000 nM
CC1(C)C(=O)N(c2cccc(S(C)(=O)=O)c2)C1c1cccc2nccnc12 (stereo unspecified),IC50,[5],350 nM
same,clearance,[6],42 mL/min/kg
same,bioavailability,[2],22%
Cc1c(Cl)cccc1S(=O)(=O)N1CCCC[C@@H]1C(=O)N[C@H]1C2CC3CC1C[C@](O)(C3)C2,IC50,[5],15 nM
same,clearance,[6],130 mL/min/kg
same,bioavailability,[2],3%
CN(C(=O)c1csc(CNS(=O)(=O)c2cccc(Cl)c2)n1)C1CCCCCC1,IC50,[5],307 nM
F[C@H]1C[C@](c2ccc(Cl)cc2)(c2nnc(C3CC3)n2C2CC2)C1,Activity,Homo sapiens [7],20%
same,Activity,Homo sapiens [8],-0.3%
same,Activity,Homo sapiens [9],10.4%
CSc1nc(N2C[C@@H]3[C@H](C2)[C@H]3C(=O)O)ccc1C(=O)NC12CC3CC(CC(C3)C1)C2,IC50,[10],120 nM
CS(=O)(=O)NCCC(=O)N1CCC(c2cc(C(=O)N3CCC[C@H]4CCCC[C@H]43)cs2)CC1,IC50,[11],287 nM
same,IC50,[12],528 nM
CCS(=O)(=O)CCCC12CCC(c3nnc(-c4ccccc4C(F)(F)F)n3C)(CC1)CC2 [MK-0736],Activity,Homo sapiens [13],-1.4 kg
same,Activity,Homo sapiens [14],-12.3%
same,Activity,Homo sapiens [15],-6.3%
same,fold change (FC),Homo sapiens [16],2
CCN1CCC[C@@H]1C(=O)NC1C2CC3CC(C2)CC1C3 (stereo partly specified),%max,Mus musculus [17],82%
same,%max,Mus musculus [18],50%
COc1cc(C(=O)Nc2ccc(C(=O)N3CCCCC3)c(O)c2)cc(OC)c1OC,inhibition (INH),Mus musculus [19],73%
CC1CN(CC(=O)N[C@H]2C3CC4CC2C[C@](C(N)=O)(C4)C3)S(=O)(=O)N(c2c(Cl)cc(Cl)cc2Cl)C1 (stereo partly specified),bioavailability,[20],69%
same,clearance,[21],11.7 mL/min/kg
same,inhibition in vivo at 20 mg/kg,Mus musculus [22],96%
same,IC50,[23],> 100000 nM
O=C(CN1C(C(=O)c2ccccc2)=C(O)c2ccccc2S1(=O)=O)c1ccccc1,IC50,[24],> 100000 nM
same,Activity,Mus musculus [25],-27%
N#Cc1ccc(-c2ccc(S(=O)(=O)Nc3cccc(N)n3)cc2)cc1,%max,Homo sapiens [26],37%
same,dose excreted,[27],< 1%
same,Tmax,[28],1 h
same,%max,Cynomolgus monkey [29],87%
same,%max,Homo sapiens [30],26%
same,half-life,[31],30 h
same,clearance,[32],16.7 mL/min
same,%max,Cynomolgus monkey [33],60%
C1CCc2nnc(C34CC5CC(CC(C5)C3)C4)n2CC1,Activity,Mus musculus [34],37%
same,inhibition in vivo at 10 mg/kg,Mus musculus [3],17%
same,IC50,[35],> 10000 nM
same,Activity,Mus musculus [36],37%
same,IC50,[37],8 nM
same,Activity,Mus musculus [38],7%
same,inhibition in vivo at 10 mg/kg,Mus musculus [4],59%
same,IC50,[1],> 3000 nM
same,Activity,Mus musculus [39],12%
same,Activity,Mus musculus [40],84%
same,Activity,Mus musculus [41],15%
